These results are taken from patent publication US12446577B2 (priority 2018, dated 2025).

Read-outs that look alike come from different tables or passages of the source.

In one assay the test system is Colletotrichum coccodes. Put plainly: Mycelium growth inhibition on PDA (Example 2). It is filed as cell-based. To be noted: 6 days at 25° C; for Average mycellium diameter: n = 4; for % inhibition of the pathogens: vs untreated PDA. The procedure: (§1) Strains used for this trial (Table 3) were kept and refreshed on Potato Dextrose Agar (PDA) at 25° C.
(§2) In a first setup, a test composition was directly added to PDA (about 20 mL/petri dish) (Table 4). Plugs of agar (diameter 8 mm) from two week-old cultures were placed at the center of the PDA plates. Each test was performed in 4 repetitions. The petri dishes were then incubated at 25° C. After 6 days of incubation, the diameter of the colonies was measured in 2 perpendicular directions. The percentage of inhibition was calculated for each tested composition and compared to the untreated PDA.

In the next assay the test system is Alternaria solani. Put plainly: Mycelium growth inhibition on PDA (Example 2). Type of assay: cell-based. To be noted: 6 days at 25° C; for Average mycellium diameter: n = 4; for % inhibition of the pathogens: vs untreated PDA. As for the experimental part:
as §1, §2

The test system of assay [1] is Botrytis cinerea (grapevine). The assay can be described thus: Mycelium growth inhibition on PDA (Example 2). It is filed as cell-based. To be noted: 6 days at 25° C; for Average mycellium diameter: n = 4; for % inhibition of the pathogens: vs untreated PDA. The procedure:
as §1, §2

For assay [2], the system named is Botrytis cinerea (lettuce). The assay can be described thus: Mycelium growth inhibition on PDA (Example 2). Type of assay: cell-based. Particulars: 6 days at 25° C; for Average mycellium diameter: n = 4; for % inhibition of the pathogens: vs untreated PDA. The procedure: as §1, §2
In the next assay the test system is powdery mildew on apple. Put plainly: Trial on potted apple trees against powdery mildew. It is filed as in vivo. To be noted: day 85; weekly sprays (TMAP 10 mL/L; Chemical per Table 13/14); 1000 leaves per object. From the text: During the third week of March 2017, 60 branched apple trees (rootstock M9—clone Golden B) of 2 years were transplanted from a local nursery into pots (pot: 12 Liters). The 60 potted apple plants were maintained outside the greenhouse in S. Michele all′Adige (Trento). Plants were maintained divided in 3 blocks. Each block was composed of 20 plants arranged in two rows (See scheme 1). Plants were watered through a drip irrigation system once or twice a week according to the weather conditions. The insecticidal treatments were applied uniformly on all the experimental plants. Two of the three objects were treated against powdery mildew in accordance with the foreseen spray scheme: Chemical treatments, TMAP alone, untreated. One object was maintained Untreated as reference. For the “Chemical” object, different active ingredients were used alone or in combination (Table 13).
The treatments were performed at the same time, and timings of spray were done weekly and according to the weather conditions. […]
Powdery mildew: 5 shoots per each plant were randomly selected and labeled for the assessments. The assessment on powdery mildew was done on day 85, ten leaves of each shoot were singularly evaluated for the presence of symptoms, 5 marked shoots per plant were assessed. […]
Data of powdery mildew incidence were analyzed using the Statistica 13.1 software.

For assay [3], the system named is Powdery Mildew (Podosphaera xanthii). Put plainly: Single leaf test powdery mildew on zucchini. Particulars: zucchini leaf N sprayed with 0.8% in water; 8 days after the treatment.
Protocol: Single leaf test Powdery Mildew (Podosphaera xanthii). A zucchini plant was selected with a powdery mildew infection on old leaves. In addition to a leaf showing the first signs of infection of powdery mildew (leaf N−1), two leaves without infection (leaf N and N+1) were selected.
Leaves (N+1) and (N−1) were left untreated. The fungal infection was assessed 8 days after the treatment.
The next assay deals with Fusarium graminearum. It is filed as cell-based. To be noted: 6 days at 25° C; for Average mycellium diameter: n = 4; for % inhibition of the pathogens: vs untreated PDA.

For `CCCCCCCCC(=O)[O-].C[N+](C)(C)CCO` [Choline pelargonate, choline pelargonate], the Average mycellium diameter (in the assay with Colletotrichum coccodes (0.36% AI in PDA); with Colletotrichum coccodes (3.6% AI in PDA); with Alternaria solani (0.36% AI in PDA); in the assay with Alternaria solani (3.6% AI in PDA); in assay [1] (0.36% AI in PDA); in assay [1] (3.6% AI in PDA)) was 0.0 ± 0.0 mm in each case. In addition, the Average mycellium diameter in assay [2] (0.36% AI in PDA) came out at 0.0 ± 0.0 mm; in assay [2] (3.6% AI in PDA), 0.0 ± 0.0 mm; with Fusarium graminearum (0.36% AI in PDA), 17.6 ± 21.1 mm; in the assay with Fusarium graminearum (3.6% AI in PDA), 0.0 ± 0.0 mm. Moreover, the “% inhibition of the pathogens” value (with Colletotrichum coccodes (0.36% AI in PDA); in the assay with Colletotrichum coccodes (3.6% AI in PDA); in the assay with Alternaria solani (0.36% AI in PDA); with Alternaria solani (3.6% AI in PDA); in assay [1] (0.36% AI in PDA); in assay [1] (3.6% AI in PDA)) was 100% throughout. For the same compound, the “% inhibition of the pathogens” value in assay [2] (0.36% AI in PDA) worked out at 100%; in assay [2] (3.6% AI in PDA) it was 100%; in the assay with Fusarium graminearum (0.36% AI in PDA), 77%; in the assay on Fusarium graminearum (3.6% AI in PDA), 100%. Besides, in the assay on powdery mildew on apple, the “disease incidence (percentage of infected leaves)” value stood at 25.5%. In addition, the “surface of leaf covered by powdery mildew” value in assay [3] is “less than 5%”.
